pKi: −log10 of the molar value. Structures can show the parent of a compound that is named as a salt.
Biological target: T1, human DPP-4 (Homo sapiens, UniProt P27487)
T1 construct: during isolation the entire transmembrane domain (including His tag) is removed by proteases present in the CHO cells; His tag (enterokinase-cleavable, from pcDNA4/HisMax) (N, cleaved yes); made in house
Assay: DPP-4 inhibition assay (cleavage of pseudosubstrate Gly-Pro-pNA, absorbance at 405 nm)
Format: biochemical
Conditions: recombinant human DPP-4, steady state, Gly-Pro-pNA 120 or 1000 μM, pH 7.4, 40 min preincubation; IC50 converted to Ki assuming competitive inhibition; read-out: DPP4 Ki
Experimental: DPP-4 inhibitory activity of the compounds of the present invention may be determined by use of an in vitro assay system which measures the degree in inhibition of DPP-4-mediated cleavage of an appropriate substrate or pseudo-substrate. Inhibition constants (Ki values) for the DPP-4 inhibitors of the invention may be determined by the method described in the experimental section below.
To generate human DPP-4, PCR (Red-tag polymerase, Sigma) was performed on Human cDNA from placenta (Clontech) using two primers, […] (SEQ ID NO:1) and […] (SEQ ID NO:2), based on the nucleotide sequence of the human clone (accession number M74777). PCR products were cloned into the pcDN4/HisMax TOPO vector (Invitrogene). For stable transfection of CHO-DG44 cells, DPP4 was rePCRed using primers […] (SEQ ID NO:3) and […] (SEQ ID NO:4) to generate KpnI and XhoI sites. The KpnI and XhoI sites were used to extract the N-terminal His tagged gene. The His tag, which could be cleaved and removed by Enterokinase, was included to allow purification using the TALON affinity column. The gene was then ligated into the KpnI and XhoI sites of the pD16 vector for stable transfection. Stable cell lines were generated by transfecting the expression vector into Chinese hamster ovary (CHO-DG44) cells using electroporation. The CHO-DG44 cell line was grown in PFCHO media supplemented with HT (glycine, hypoxanthine and thymidine, Invitrogene), glutamine and Recombulin (ICN). Then 1×10^7 cells/ml were collected, transfected with 60 μg of DNA using electroporation at 300V, and then transferred to a T75 flask. On the third day following transfection, the HT supplement was removed and selection was initiated with methotrexate (MTX, 10 nM, ICN). After a further 10 days the cells were plated into individual wells of 96 well plates. Every 10 days the concentration of MTX was increased two to three fold, up to a maximum of 400 nM. Final stable cell line selection was based on yield and activity of the expressed protein.
An attempt to purify recombinant DPP-4 using Talon resin was not efficient, resulting in small yields, with most of the DPP activity passing through the column. Therefore, protein was further purified using conventional anion exchange (Sepharose Q), gel filtration (S-200) and high resolution MonoQ columns. The final protein yielded a single band on SDS-PAGE gels. Amino acid sequence analysis indicated two populations of DPP-4 in the sample. One portion of the protein had 27 amino acids truncated from the N-terminus, while the other was lacking the N-terminal 37 amino acids. […] Total protein concentration was measured using the Bradford dye method and the amount of the active DPP-4 was determined by titrating the enzyme with a previously characterized inhibitor (Ki=0.4 nM).
Inhibition of human DPP-4 activity was measured under steady-state conditions by following the absorbance increase at 405 nm upon the cleavage of the pseudosubstrate, Gly-Pro-pNA. Assays were performed in 96-well plates using a Thermomax plate reader. […] To ensure steady-state conditions for slow-binding inhibitors, enzyme was preincubated with the compound for 40 minutes prior to substrate addition, to initiate the reaction.
Inhibitor potency was evaluated by fitting inhibition data to the binding isotherm:
[formula] where vi is the initial reaction velocity at different concentrations of inhibitor I; v is the control velocity in the absence of inhibitor, range is the difference between the uninhibited velocity and background; background is the rate of spontaneous substrate hydrolysis in the absent of enzyme, n is the Hill coefficient.
Calculated IC50s at each substrate concentration were converted to Ki assuming competitive inhibition according to:
All inhibitors were competitive as judged by a very good agreement of Ki values obtained from the assays at high and low substrate concentrations. […]

T1 sequence (P27487 29-766 limits assumed): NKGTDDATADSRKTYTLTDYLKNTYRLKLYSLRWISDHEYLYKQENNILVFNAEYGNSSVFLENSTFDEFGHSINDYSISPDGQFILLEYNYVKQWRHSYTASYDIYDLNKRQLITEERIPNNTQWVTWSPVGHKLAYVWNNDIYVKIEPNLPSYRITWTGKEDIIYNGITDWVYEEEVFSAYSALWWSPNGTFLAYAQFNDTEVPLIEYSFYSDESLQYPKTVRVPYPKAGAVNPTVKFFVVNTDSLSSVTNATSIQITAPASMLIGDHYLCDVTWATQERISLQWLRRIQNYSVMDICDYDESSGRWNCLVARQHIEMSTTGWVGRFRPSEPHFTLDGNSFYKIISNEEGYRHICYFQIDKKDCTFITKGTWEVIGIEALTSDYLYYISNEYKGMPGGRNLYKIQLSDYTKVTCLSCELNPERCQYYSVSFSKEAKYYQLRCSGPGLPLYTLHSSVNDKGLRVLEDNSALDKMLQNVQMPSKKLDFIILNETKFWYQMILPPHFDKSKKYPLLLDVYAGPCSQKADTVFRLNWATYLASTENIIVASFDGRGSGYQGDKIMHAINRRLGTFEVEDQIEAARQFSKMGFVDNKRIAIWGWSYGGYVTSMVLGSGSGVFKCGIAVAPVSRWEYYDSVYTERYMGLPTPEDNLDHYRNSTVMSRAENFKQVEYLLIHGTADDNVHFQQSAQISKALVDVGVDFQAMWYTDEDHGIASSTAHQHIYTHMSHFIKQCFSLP

Structure (SMILES) | pKi
Cc1nc2c(c(-c3ccccc3Cl)c1CN)C(=O)N(CC(=O)N(C)C)CC2 (single isomer, unassigned) [Example 3, TFA salt] | 7.42
Cc1nc2c(c(-c3ccccc3Cl)c1CN)C(=O)N(CC(=O)N(C)C)CC2 (single isomer, unassigned) [Example 5, TFA Salt] | < 7.00
Cc1nc2c(c(-c3ccc(Cl)cc3Cl)c1CN)C(=O)NCC2 [Example 1, 3-(Aminomethyl)-4-(2,4-dichlorophenyl)-2-methyl-7,8-dihydro-1,6-naphthyridin-5(6H)-one HCl salt] | 8.16
CCN(CC)C(=O)CN1CCc2nc(C)c(CN)c(-c3ccc(Cl)cc3Cl)c2C1=O [Example 8, (S)-2-(3-(Aminomethyl)-4-(2,4-dichlorophenyl)-2-methyl-5-oxo-7,8-dihydro-1,6-naphthyridin-6(5H)-yl)-N,N-diethylacetamide TFA salt] | 8.42
Cc1nc2c(c(-c3ccc(Cl)cc3Cl)c1CN)C(=O)N(C)CC2 [Example 13, 3-(Aminomethyl)-4-(2,4-dichlorophenyl)-2,6-dimethyl-7,8-dihydro-1,6-naphthyridin-5(6H)-one TFA salt] | 8.11
COCCN1CCc2nc(C)c(CN)c(-c3ccc(Cl)cc3Cl)c2C1=O [Example 15, 3-(Aminomethyl)-4-(2,4-dichlorophenyl)-6-(2-methoxyethyl)-2-methyl-7,8-dihydro-1,6-naphthyridin-5(6H)-one TFA salt] | 8.27
Cc1nc2c(c(-c3ccc(Cl)cc3Cl)c1CN)C(=O)N(c1ccccc1)CC2 [Example 17, 3-(Aminomethyl)-4-(2,4-dichlorophenyl)-2-methyl-6-phenyl-7,8-dihydro-1,6-naphthyridin-5(6H)-one TFA salt] | 8.30
COc1ccccc1N1CCc2nc(C)c(CN)c(-c3ccc(Cl)cc3Cl)c2C1=O [Example 18, 3-(Aminomethyl)-4-(2,4-dichlorophenyl)-6-(2-methoxyphenyl)-2-methyl-7,8-dihydro-1,6-naphthyridin-5(6H)-one TFA Salt] | 8.64
Cc1nc2c(c(-c3ccc(Cl)cc3Cl)c1CN)C(=O)NC(=O)C2 [Example 19, 3-(Aminomethyl)-4-(2,4-dichlorophenyl)-2-methyl-1,6-naphthyridine-5,7(6H,8H)-dione TFA Salt] | 8.03

Further lines, results first:

pKi | Structure (SMILES)
8.70 | Cc1nc2c(c(-c3ccc(Cl)cc3Cl)c1CN)C(=O)N(CC(=O)N(C)C)CC2 (single isomer, unassigned) [Example 2, TFA salt]
7.40 | Cc1nc2c(c(-c3ccc(Cl)cc3Cl)c1CN)C(=O)N(CC(=O)N(C)C)CC2 (single isomer, unassigned) [Example 4, TFA salt]
8.46 | Cc1nc2c(c(-c3ccc(Cl)cc3Cl)c1CN)C(=O)N(CC(N)=O)CC2 [Example 6, (S)-2-(3-(Aminomethyl)-4-(2,4-dichlorophenyl)-2-methyl-5-oxo-7,8-dihydro-1,6-naphthyridin-6(5H)-yl)acetamide TFA salt]
8.46 | Cc1nc2c(c(-c3ccc(Cl)cc3Cl)c1CN)C(=O)N(CC(=O)N1CCCC1)CC2 [Example 9, (S)-3-(Aminomethyl)-4-(2,4-dichlorophenyl)-2-methyl-6-(2-oxo-2-(pyrrolidin-1-yl)ethyl)-7,8-dihydro-1,6-naphthyridin-5(6H)-one TFA salt]
8.41 | Cc1nc2c(c(-c3ccc(Cl)cc3Cl)c1CN)C(=O)N(CC(=O)N1CCCCC1)CC2 [Example 10, (S)-3-(Aminomethyl)-4-(2,4-dichlorophenyl)-2-methyl-6-(2-oxo-2-(piperidin-1-yl)ethyl)-7,8-dihydro-1,6-naphthyridin-5(6H)-one TFA salt]
7.31 | Cc1nc2c(c(-c3ccc(Cl)cc3Cl)c1CN)C(=O)N(CC(=O)N1CCC(N3CCCCC3=O)CC1)CC2 [Example 11, (S)-3-(Aminomethyl)-4-(2,4-dichlorophenyl)-2-methyl-6-(2-oxo-2-(2-oxo-1,4′-bipiperidin-1′-yl)ethyl)-7,8-dihydro-1,6-naphthyridin-5(6H)-one TFA salt]
8.35 | Cc1nc2c(c(-c3ccc(Cl)cc3Cl)c1CN)C(=O)N(CC(=O)N1CCOCC1)CC2 [Example 12, (S)-3-(Aminomethyl)-4-(2,4-dichlorophenyl)-2-methyl-6-(2-morpholino-2-oxoethyl)-7,8-dihydro-1,6-naphthyridin-5(6H)-one TFA salt]
8.23 | Cc1nc2c(c(-c3ccc(Cl)cc3Cl)c1CN)C(=O)N(C[C@@H]1CCCO1)CC2 [Example 14, 3-(Aminomethyl)-4-(2,4-dichlorophenyl)-2-methyl-6-(((S)-tetrahydrofuran-2-yl)methyl)-7,8-dihydro-1,6-naphthyridin-5(6H)-one TFA salt]
7.74 | Cc1nc2c(c(-c3ccc(Cl)cc3Cl)c1CN)C(=O)N(CCO)CC2 [Example 16, 3-(Aminomethyl)-4-(2,4-dichlorophenyl)-6-(2-hydroxyethyl)-2-methyl-7,8-dihydro-1,6-naphthyridin-5(6H)-one TFA salt]
